# Values quoted from earlier work, collected in the CATMoS acute toxicity set (Mansouri et al. 2021).
# Several values for one entry are separate records, joined by “and”; a condition that tells them apart may be missing. Identical values can stand only once.
# Assay: rat acute oral toxicity
# Conditions: in vivo
row,SMILES,LD50
1,CC1(C)S[C@@H]2[C@H](NC(=O)C3(N)CCCCC3)C(=O)N2[C@H]1C(=O)O,5010 mg/kg
2,O=C(Nc1cc(F)ccc1F)NC1CC1,152 mg/kg
3,CCCCCC#CC(=O)OC,1530 mg/kg
4,CCCCCCCCCCCCCCCCCC[N+](C)(C)Cc1ccccc1,1250 mg/kg
5,C#CCSP(=O)(NC(=O)CC)OC (centres undefined),500 mg/kg
6,CC(C)NNC(=O)c1ccncc1,365 mg/kg
7,CCCCNc1ccc2c(c1)C(=O)N(CCN(CC)CC)C2=O,580 mg/kg
8,O=C(OCC=Cc1ccccc1)c1ccccc1,4000 mg/kg
9,CN(C)C(=O)Oc1cccc([N+](C)(C)C)c1,51 mg/kg
10,CC[C@H]1OC(=O)[C@H](C)[C@@H](O[C@H]2C[C@@](C)(OC)[C@@H](O)[C@H](C)O2)[C@H](C)[C@@H](O[C@@H]2O[C@H](C)C[C@H](N(C)C)[C@H]2O)[C@](C)(OC)C[C@@H](C)C(=O)[C@H](C)[C@@H](O)[C@]1(C)O,1270 mg/kg
11,Cc1ccc(S(=O)(=O)NCl)cc1,935 mg/kg
12,CCCCCCCCCCCCOC(=O)Cc1ccc(N(CCCl)CCCl)cc1,72 mg/kg
13,Cc1cccc(C)c1N(C(=O)CCl)C1CCOC1=O (centres undefined),2600 mg/kg
14,COc1ccc(C=Nc2c(C)n(C)n(-c3ccccc3)c2=O)cc1,10000 mg/kg
15,C=CC[C@@H]1C=C(C)C[C@H](C)C[C@H](OC)[C@H]2O[C@@](O)(C(=O)C(=O)N3CCCC[C@H]3C(=O)O[C@H](/C(C)=C/[C@@H]3CC[C@@H](O)[C@H](OC)C3)[C@H](C)[C@@H](O)CC1=O)[C@H](C)C[C@@H]2OC,134 mg/kg
16,CCCCN(CCCC)S(=O)(=O)c1ccc(Cl)cc1,500 mg/kg
17,CC(C)(OO)c1cccc(C(C)(C)OO)c1,1500 mg/kg
18,CN(SC(Cl)(Cl)Cl)C(=O)ON=C1SC(=C(C#N)C#N)SC1(C)C,538 mg/kg
19,CC=Cc1ccc(O)c(OC)c1,1560 mg/kg
20,CN1CCN(CC/C=C2/c3ccccc3Sc3ccc(S(=O)(=O)N(C)C)cc32)CC1,410 mg/kg
21,CCOP(=O)(OC=C(Cl)Cl)OCCCl (centres undefined),5 mg/kg
22,COc1cc2c3cc1Oc1cc(ccc1O)C[C@@H]1c4c(cc(OC)c(O)c4Oc4ccc(cc4)C[C@@H]3N(C)CC2)CC[N+]1(C)C,28 mg/kg
23,CCCCC(CC)CN (centres undefined),450 mg/kg
24,C=CN,1850 mg/kg

row,SMILES,LD50
1,O=C(O)C1=CC(=C(c2ccc(O)c(C(=O)O)c2)c2ccc(O)c(C(=O)O)c2)C=CC1=O,9000 mg/kg
2,CCCCC(C)=O,2590 mg/kg
3,CNC(=O)c1cc(OC)n(-c2cccc(Cl)c2)n1,1540 mg/kg
4,C=CP(=O)(OCCCl)OCCCl,990 mg/kg
5,CCN(CC)C(=O)c1cccc(OC)c1O,2080 mg/kg
6,O=[N+]([O-])c1ccc(CCl)cc1,1810 mg/kg
7,CCCSc1nc(Cl)c([N+](=O)[O-])c(Cl)n1,300 mg/kg
8,CCCCN(N=O)c1ccc(N(CCCC)N=O)cc1,2600 mg/kg
9,Clc1c(Cl)c(Cl)c2c(c1Cl)Oc1c(Cl)c(Cl)c(Cl)c(Cl)c1O2,1 mg/kg
10,OCC1CCCO1 (centres undefined),1600 mg/kg
11,CCCCC[C@H](O)/C=C/[C@@H]1[C@@H](C/C=C\CCCC(=O)O)[C@@H](O)C[C@H]1O,1170 mg/kg
12,CNS(=O)(=O)CCNC(=O)N(CCCl)N=O,40 mg/kg
13,Cc1ccc(/N=N/c2c(O)c(S(=O)(=O)O)cc3ccc(S(=O)(=O)O)cc23)c(C)c1,23200 mg/kg
14,CC(C)=CC1CC(C)CCO1 (centres undefined),4300 mg/kg
15,O=C(OCc1ccccc1)c1sc(Cl)nc1C(F)(F)F,5010 mg/kg
16,Cn1c(=O)c2c(ncn2CCCCCN2CCN(c3ccc(Cl)cc3)CC2)n(C)c1=O,353 mg/kg
17,NC(Cl)(Cl)c1nc(Cl)c(Cl)c(Cl)c1Cl,1500 mg/kg
18,O=S1(=O)CC(Cl)C(Cl)C1 (centres undefined),482 mg/kg
19,O=C(O)C(S)C(S)C(=O)O (centres undefined),4000 mg/kg
20,NCc1ccc(S(N)(=O)=O)cc1,9210 mg/kg
21,CCCCCCCCc1ccccc1O,2800 mg/kg
22,N#CCCN1CC=C(c2cccc(C(F)(F)F)c2)CC1,515 mg/kg
23,Nc1cnn(-c2ccccc2)c(=O)c1Br,8500 mg/kg
24,CSC(=S)N(C)C,62 mg/kg

row,SMILES,LD50
1,OCCN1CCN(CCCN2c3ccccc3C=Cc3ccccc32)CC1,1110 mg/kg and 900 mg/kg
2,CCCn1cnc2c1c(=O)n(CCCCC(C)=O)c(=O)n2C,940 mg/kg
3,O=C(CN1CC1)NCCCCCCCCNC(=O)CN1CC1,225 mg/kg
4,C[N+](C)([O-])CCC=C1c2ccccc2CCc2ccccc21,1800 mg/kg
5,C=CCN(CC=C)CC=C,1030 mg/kg
6,CCOC1Oc2ccc(OS(C)(=O)=O)cc2C1(C)C (centres undefined),1130 mg/kg
7,O=C1Nc2ccc(Cl)cc2C(c2ccccc2Cl)=NC1O (centres undefined),4500 mg/kg
8,O=[N+]([O-])c1c(Cl)cc(Cl)c([N+](=O)[O-])c1Cl,500 mg/kg
9,CCCC(=O)c1ccc(N)cc1,84 mg/kg
10,CN(C)c1ccc(C=Cc2ccccc2)cc1,50 mg/kg
11,NC(=S)Nc1ccccc1Cl,4.6 mg/kg
12,FC(F)(F)c1nc2c(Cl)cc(Cl)c(Cl)c2[nH]1,6.33 mg/kg
13,CC1(C)C(C(=O)OC(C#N)c2cccc(Oc3ccccc3)c2)C1(C)C (centres undefined),18 mg/kg
14,O=C(CS(=O)Cc1ccco1)NC/C=C\COc1cc(CN2CCCCC2)ccn1 (centres undefined),1250 mg/kg
15,COP(=O)(OC1CCCCC1)Sc1ccc(Cl)cc1 (centres undefined),160 mg/kg
16,CC12CC1(C)C(=O)N(c1cc(Cl)cc(Cl)c1)C2=O (centres undefined),7000 mg/kg
17,O=[N+]([O-])c1cnc(Cl)c([N+](=O)[O-])c1,50 mg/kg
18,CCCCC(CC)CNCC(C)(N)CN(C)CC(CC)CCCC (centres undefined),1000 mg/kg
19,CCCC/C=C\CCCCCCOC(C)=O,13400 mg/kg
20,C=CC(=O)OCC(CC)CC,6490 mg/kg
21,CCC(C)(N)C#N (centres undefined),74 mg/kg
22,Cc1[nH]c(=O)n(C(C)C)c(=O)c1Br,3400 mg/kg
23,CCO[Si](C)(C)c1ccccc1,2460 mg/kg
24,C[C@H](N)Cc1ccccc1,38 mg/kg

row,SMILES,LD50
1,CCOC(=O)C(C(C)=O)P(=O)(OCC)OCC (centres undefined),176 mg/kg
2,O=NN1CCNCC1,2260 mg/kg
3,CCCCCCCCc1ccc(-c2ccc(C#N)cc2)cc1,2200 mg/kg
4,CC(c1ccccc1)C(C)(C)N (centres undefined),180 mg/kg
5,CCOC(C1=NCC(C)(C)CN1)c1ccccc1 (centres undefined),875 mg/kg
6,CCC(C)OC(C[n+]1ccccc1)c1ccccc1 (centres undefined),250 mg/kg
7,Cc1cc(C2CCCCC2)n(O)c(=O)c1,2350 mg/kg
8,Cc1cncc(CN2CCC(=C3c4ccc(Cl)cc4CCc4cccnc43)CC2)c1,1000 mg/kg
9,CCOc1ccc(N(N=O)C(C)=O)cc1,21 mg/kg
10,CC[N+](CC)(CC)CC,2630 mg/kg
11,C#CC(C)OC(=O)Nc1cccc(Cl)c1 (centres undefined),2380 mg/kg
12,COP(=S)(Oc1ccc([N+](=O)[O-])cc1)OC(C)C (centres undefined),5 mg/kg
13,CC(=O)C1(O)CCC(c2ccccc2)CC1 (centres undefined),8000 mg/kg
14,COC(=O)C1CCC(C(=O)OC)CC1 (centres undefined),2810 mg/kg
15,CCP(c1ccccc1)c1ccccc1,500 mg/kg
16,C/C(=N\O)C(=O)c1ccccc1,4240 mg/kg
17,CCCN(CCC)S(=O)(=O)CCNC(=O)N(CCCl)N=O,250 mg/kg
18,CN1CC(CCN2CC=C(c3ccccc3)CC2)OC1=O (centres undefined),340 mg/kg
19,CNC(=O)ON=C1SCC(=O)NC1C (centres undefined),5.66 mg/kg
20,CCC(C(O)c1ccc2[nH]c(=O)ccc2c1)N1CCN(c2cccc(Cl)c2)CC1 (centres undefined),500 mg/kg
21,N#Cc1ccc([N+](=O)[O-])cc1,30 mg/kg
22,C=CC(=O)OCCN=C=O,200 mg/kg
23,CCCCCCCCOC(C[n+]1ccccc1)c1ccc(C2CCCC2)cc1 (centres undefined),250 mg/kg
24,CCCCCCCCCCCCCCCCSCC(COC)COP(=O)([O-])OCC[N+](C)(C)C (centres undefined),253 mg/kg

row,SMILES,LD50
1,COP(=O)(OC)ON1C(=O)c2cccc3cccc(c23)C1=O,70 mg/kg
2,CC(=O)c1ccc(O)c(C(N)=O)c1,1700 mg/kg
3,CC(=O)c1ccccc1[N+](=O)[O-],1600 mg/kg
4,CCCCCCCCCCCCCCCCCC(=O)OCCCC,32000 mg/kg
5,CS(=O)CC(=O)c1ccccn1 (centres undefined),6550 mg/kg
6,S=C1NCCC(COc2ccccc2)O1 (centres undefined),2200 mg/kg
7,CN(C)C(=O)c1cccc(-c2ccccc2)c1O,1900 mg/kg
8,CN(CCO)c1nc(Nc2ccccc2)nc(Nc2ccc(/C=C/c3ccc(Nc4nc(Nc5ccccc5)nc(N(C)CCO)n4)cc3S(=O)(=O)O)c(S(=O)(=O)O)c2)n1,6890 mg/kg
9,NNC(=S)NN,21.6 mg/kg
10,COc1ccccc1C1=CCN(CC=Cc2ccc3c(c2)CCC(=O)N3)CC1,500 mg/kg
11,CCCCC1C(=O)NN(c2ccccc2)C1=O (centres undefined),1750 mg/kg
12,OC(CCl)CN1CCCN(CC(O)CCl)c2ccccc21 (centres undefined),750 mg/kg
13,Cc1nn(C)c(OCC(=O)c2ccccc2)c1C(=O)c1ccc(Cl)cc1Cl,1640 mg/kg
14,Nc1ccccc1-c1ccccc1,2340 mg/kg
15,CC(=O)NNc1ccc(N)cc1,10 mg/kg
16,Oc1nc(O)nc(O)n1,7700 mg/kg
17,COc1cc2nc(N3CCC(N(C)C(=O)c4ccccc4)CC3)nc(N)c2cc1OC,1000 mg/kg
18,Cn1c2c(c3ccc(N)cc31)CCCC2,705 mg/kg
19,C=Cc1ccccc1Cl,5200 mg/kg
20,O=c1oc(=O)c2cc3c(=O)oc(=O)c3cc12,2250 mg/kg
21,COc1cc(CC(C)N)cc2c1OCO2 (centres undefined),170 mg/kg
22,CN(N=Nc1ccccc1)N=Nc1ccccc1,212 mg/kg
23,Cn1c2ccccc2c2cc(N)ccc21,347 mg/kg
24,Cc1nc2sccn2c1/C=N/NC(=O)CN(C)C,1500 mg/kg

row,SMILES,LD50
1,Nc1cccc2c(Cl)ccc(Cl)c12,3490 mg/kg
2,CCCCCCCCCCCCCCCC[N+](C)(C)CC(=O)[O-],1620 mg/kg
3,CCCC(Cc1ccccc1)N1CCCC1 (centres undefined),278 mg/kg and 157 mg/kg
4,CCOC(=O)C(NCCNC(C(=O)OCC)c1ccccc1O)c1ccccc1O (centres undefined),800 mg/kg
5,CCCCOC(C[n+]1ccccc1)c1ccccc1 (centres undefined),250 mg/kg
6,CCc1ccc([N+]([O-])=Cc2ccccc2)cc1,1340 mg/kg
7,CC(C)OC(=O)C=CC(=O)OC(C)C,2140 mg/kg and 3250 mg/kg
8,CC(O)CN(C)c1ccc(NN)nn1 (centres undefined),1230 mg/kg
9,CCO[SiH](Cl)OCC,6300 mg/kg
10,OCCN(CCO)c1ccccc1,980 mg/kg
11,CC(CN)NCCO (centres undefined),4920 mg/kg
12,NC(=O)OCC(O)COc1ccc(Cl)cc1 (centres undefined),744 mg/kg
13,CO[C@H]1C[C@H](O[C@H]2[C@H](C)[C@@H](O[C@@H]3O[C@H](C)C[C@H](N(C)C)[C@H]3O)[C@@H](C)C[C@]3(CO3)C(=O)[C@H](C)[C@@H](O)[C@@H](C)[C@@H](C)OC(=O)[C@@H]2C)O[C@@H](C)[C@@H]1O,6700 mg/kg
14,Cc1ccc(Cl)cc1N,464 mg/kg
15,O=C1[C@H]2CCCC[C@H]2C(=O)N1CCCCN1CCN(c2nsc3ccccc23)CC1,870 mg/kg
16,CN(N=O)c1cccnc1,10 mg/kg
17,O=[N+]([O-])c1ccc([C@@H](O)[C@@H]2COC(C(Cl)Cl)=N2)cc1,6000 mg/kg
18,O=C1NN=C(c2ccccc2)CO1,441 mg/kg
19,CC1=CCC(C(C)C)C=C1 (centres undefined),5700 mg/kg
